Laboratory results: patent US20240116921A1, “LACTAM (HETERO)[…] DERIVATIVES AS INHIBITORS OF ERBB2” (EnLiven Therapeutics, Inc., priority 2020, published 2024)

Biological target: Ba/F3 EGFR wt (Homo sapiens, UniProt P00533)
Test: Cell viability assay, Ba/F3 EGFR wt
Type: cell-based, mouse
Conditions: Ba/F3 EGFR wt cells, 72 hours, CellTiter Glo; read-out: IC50, cell viability, Ba/F3 EGFR wt
Experimental: Cells were treated with compounds, and cell viability was measured as a metric of kinase inhibition.
The Ba/F3 cell line is IL-3-dependent mouse cell line derived from the C3H mouse strain. Ba/F3 cell lines were engineered to express human ERBB2 or EGFR kinases, rendering the cells IL-3 independent. The lines were generated via retroviral transduction utilizing a Moloney murine leukemia virus (MMLV) promoter, and constructs are stably integrated into the cell genome. The sequences of the ERBB2 and EGFR genes used were NCBI Reference Sequences NM_004448.3 and NM_005228.3, respectively.
Similarly, Ba/F3 cell lines engineered to express EGFR, ERBB2, or ERBB2 mutants were grown, harvested, counted and seeded at 3000 cells per well in 96-well plates. A subset of wells contained media only (low control, “LC”).
Table B1 provides the growth media and number of cells seeded per well for the each cell line.
Plates were placed in a 37° C., 5% CO2 incubator for 72 hours. Plates were then removed from the incubator and equilibrated for 15 minutes at room temperature. 40 μl of CellTiter Glo reagent (Promega) was added to measure the relative level of metabolically active cells by quantifying intracellular ATP concentrations. Plates were incubated for 30 minutes at room temperature, and luminescence was measured. […]

Ba/F3 EGFR wt, sequence (P00533 whole entry, change not shown): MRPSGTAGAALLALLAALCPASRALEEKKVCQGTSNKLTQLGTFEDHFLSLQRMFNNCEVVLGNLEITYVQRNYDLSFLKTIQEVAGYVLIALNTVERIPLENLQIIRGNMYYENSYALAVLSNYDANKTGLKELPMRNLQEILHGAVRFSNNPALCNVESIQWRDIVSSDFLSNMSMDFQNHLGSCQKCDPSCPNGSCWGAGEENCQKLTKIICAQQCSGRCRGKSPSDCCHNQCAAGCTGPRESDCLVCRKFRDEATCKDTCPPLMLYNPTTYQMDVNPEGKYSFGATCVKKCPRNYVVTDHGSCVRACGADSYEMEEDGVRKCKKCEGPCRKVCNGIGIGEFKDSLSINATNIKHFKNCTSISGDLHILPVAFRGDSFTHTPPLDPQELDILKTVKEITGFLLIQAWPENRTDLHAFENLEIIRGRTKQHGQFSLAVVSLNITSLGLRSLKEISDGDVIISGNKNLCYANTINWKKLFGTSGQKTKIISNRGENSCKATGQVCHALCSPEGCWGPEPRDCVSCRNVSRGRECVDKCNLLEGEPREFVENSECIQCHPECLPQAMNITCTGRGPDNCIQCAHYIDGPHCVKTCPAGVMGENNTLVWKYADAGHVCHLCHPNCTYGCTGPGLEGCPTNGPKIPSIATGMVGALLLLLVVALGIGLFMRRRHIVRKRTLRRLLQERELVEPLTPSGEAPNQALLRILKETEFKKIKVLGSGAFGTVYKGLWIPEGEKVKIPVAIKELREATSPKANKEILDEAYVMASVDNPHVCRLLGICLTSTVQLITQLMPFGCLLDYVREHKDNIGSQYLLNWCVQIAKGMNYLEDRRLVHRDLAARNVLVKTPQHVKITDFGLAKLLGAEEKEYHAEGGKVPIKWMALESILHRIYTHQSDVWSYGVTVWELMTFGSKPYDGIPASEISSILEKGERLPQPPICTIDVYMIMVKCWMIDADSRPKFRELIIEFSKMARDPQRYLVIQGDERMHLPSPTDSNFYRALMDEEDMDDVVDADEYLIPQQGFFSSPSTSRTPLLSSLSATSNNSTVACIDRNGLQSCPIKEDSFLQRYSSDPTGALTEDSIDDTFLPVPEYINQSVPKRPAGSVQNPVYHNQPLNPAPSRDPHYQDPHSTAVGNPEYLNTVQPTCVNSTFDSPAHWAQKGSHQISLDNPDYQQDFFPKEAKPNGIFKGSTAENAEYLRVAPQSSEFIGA

`C=C1CCN(c2ccc3ncnc(Nc4ccc(Oc5ccn6ncnc6c5)c(C)c4)c3c2)C1=O` [Compound 1, 1-[4-[(3-methyl-4-[[1,2,4]triazolo[1,5-a]pyridin-7-yloxy]phenyl)amino]quinazolin-6-yl]-3-methylidenepyrrolidin-2-one] showed a GI50 of over 10 µM.
